Data as given in the supplement of paper PMC10307832.

What was measured:
Assay in all cases: relative viability (nuclei count vs DMSO), 5 days (fraction); higher = more cells survive
[1] = compound: C/C(=N\NC(=S)N1CCC1)/C2=CC=CC=N2 + O=C(CCCCCCC(=O)Nc1ccccc1)NO [Vorinostat] (partner 1 µM)
In short: (§1)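 Relative viability is defined as nuclei in treated wells over nuclei in vehicle wells. Duplicate plates were run and medians reported. Lung cancer cell lines in 1536-well plates were dosed by pin tool one day after seeding, with one drug or with a fixed anchor-drug dose plus five library-drug doses (not always all listed) in √10 steps, and nuclei were counted after 5 days.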

[2] = compound: C/C(=N\NC(=S)N1CCC1)/C2=CC=CC=N2 + CC(=O)c1c(C)c2cnc(Nc3ccc(N4CCNCC4)cn3)nc2n(C2CCCC2)c1=O [Palbociclib] (partner 0.5 µM)
In short: as §1

[3] = compound: C/C(=N\NC(=S)N1CCC1)/C2=CC=CC=N2 + Cc1nc(Nc2ncc(C(=O)Nc3c(C)cccc3Cl)s2)cc(N2CCN(CCO)CC2)n1 [Dasatinib] (partner 0.075 µM)
In short: as §1

[4] = compound: C/C(=N\NC(=S)N1CCC1)/C2=CC=CC=N2 + Nc1nc2[nH]cc(CCc3ccc(C(=O)N[C@@H](CCC(=O)O)C(=O)O)cc3)c2c(=O)[nH]1 [Pemetrexed] (partner 0.2 µM)
In short: as §1

Cell Line	relative viability ([1]; first compound 0.05 µM)	relative viability ([1]; first compound 0.1581 µM)	relative viability ([1]; first compound 0.5 µM)	relative viability ([1]; first compound 1.581 µM)	relative viability ([1]; first compound 5 µM)	relative viability ([2]; first compound 0.05 µM)	relative viability ([2]; first compound 0.1581 µM)	relative viability ([2]; first compound 0.5 µM)	relative viability ([2]; first compound 1.581 µM)	relative viability ([2]; first compound 5 µM)	relative viability ([3]; first compound 0.05 µM)	relative viability ([3]; first compound 0.1581 µM)	relative viability ([3]; first compound 0.5 µM)	relative viability ([3]; first compound 1.581 µM)	relative viability ([3]; first compound 5 µM)	relative viability ([4]; first compound 0.05 µM)	relative viability ([4]; first compound 0.1581 µM)	relative viability ([4]; first compound 0.5 µM)	relative viability ([4]; first compound 1.581 µM)	relative viability ([4]; first compound 5 µM)
201T	0.351	0.349	0.315	0.301	0.281	0.27	0.351	0.307	0.213	0.205	0.324	0.29	0.282	0.232	0.216	0.292	0.315	0.289	0.294	0.286
A-427	0.187	0.198	0.171	0.158	0.186	0.194	0.224	0.205	0.174	0.181	0.144	0.124	0.132	0.0986	0.117	0.191	0.209	0.195	0.151	0.188
ABC-1	0.268	0.339	0.308	0.275	0.302	0.344	0.412	0.328	0.239	0.275	0.213	0.306	0.195	0.193	0.225					
BEN	0.233	0.293	0.296	0.281	0.3	0.346	0.332	0.336	0.283	0.313	0.142	0.187	0.177	0.171	0.153	0.256	0.318	0.262	0.279	0.311
CAL-12T	0.0882	0.112	0.127	0.101	0.114	0.0958	0.145	0.131	0.109	0.122	0.0937	0.0896	0.054	0.0962	0.0819	0.14	0.132	0.173	0.143	0.122
COR-L23	0.11	0.099	0.0957	0.0832	0.0963	0.0993	0.12	0.0934	0.0924	0.0839	0.102	0.095	0.0719	0.0707	0.0937	0.149	0.169	0.163	0.105	0.123
COR-L 105	0.345	0.346	0.345	0.304	0.291	0.353	0.358	0.349	0.316	0.318	0.178	0.254	0.243	0.176	0.185	0.399	0.389	0.326	0.358	0.335
ChaGo-K-1	0.164	0.159	0.155	0.143	0.165	0.144	0.408	0.144	0.132	0.148	0.137	0.178	0.17	0.131	0.168	0.172	0.171	0.18	0.161	0.162
EKVX	0.196	0.223	0.186	0.205	0.221	0.13	0.149	0.109	0.141	0.158	0.186	0.174	0.164	0.172	0.192	0.148	0.163	0.0961	0.166	0.175
EMC-BAC-2	0.193	0.199	0.134	0.153	0.135	0.274	0.324	0.261	0.223	0.253	0.149	0.169	0.175	0.129	0.186	0.26	0.255	0.275	0.228	0.259
EPLC-272H	0.0931	0.159	0.149	0.0509	0.107	0.117	0.138	0.155	0.056	0.0855	0.086	0.079	0.117	0.0523	0.0578	0.165	0.179	0.149	0.0756	0.265
H3255	0.334	0.288	0.179	0.274	0.289	0.259	0.278	0.304	0.259	0.266	0.355	0.347	0.258	0.225	0.392	0.359	0.349	0.355	0.268	0.255
HARA	0.0948	0.381	0.0375	0.076	0.0809	0.188	0.133	0.233	0.139	0.164	0.0909	0.0673	0.0699	0.063	0.083	0.218	0.174	0.212	0.141	0.165
HCC-15	0.204	0.275	0.145	0.139	0.116	0.184	0.268	0.114	0.0996	0.091	0.0569	0.0708	0.0679	0.0571	0.0669	0.198	0.11	0.13	0.113	0.093
HCC-44	0.894	1.02	0.51	0.471	0.411	0.976	0.886	0.563	0.556	0.451						0.599	0.52	0.549	0.547	0.424
HCC-78	0.427	0.414	0.338	0.23	0.231	0.355	0.368	0.273	0.329	0.323	0.264	0.256	0.268	0.181	0.157	0.96	0.872	0.854	0.84	0.863
HCC-366	0.0207	0.0269	0.0257	0.0337	0.0244	0.065	0.0358	0.0237	0.0228	0.026	0.0305	0.0271	0.0302	0.0382	0.031	0.0318	0.0443	0.0286	0.0295	0.0319
HCC-827	0.251	0.214	0.18	0.233	0.149	0.272	0.229	0.173	0.166	0.144	0.292	0.302	0.21	0.241	0.283	0.224	0.225	0.259	0.152	0.171

Cell Line	relative viability ([1]; first compound 0.05 µM)	relative viability ([1]; first compound 0.1581 µM)	relative viability ([1]; first compound 0.5 µM)	relative viability ([1]; first compound 1.581 µM)	relative viability ([1]; first compound 5 µM)	relative viability ([2]; first compound 0.05 µM)	relative viability ([2]; first compound 0.1581 µM)	relative viability ([2]; first compound 0.5 µM)	relative viability ([2]; first compound 1.581 µM)	relative viability ([2]; first compound 5 µM)	relative viability ([3]; first compound 0.05 µM)	relative viability ([3]; first compound 0.1581 µM)	relative viability ([3]; first compound 0.5 µM)	relative viability ([3]; first compound 1.581 µM)	relative viability ([3]; first compound 5 µM)	relative viability ([4]; first compound 0.05 µM)	relative viability ([4]; first compound 0.1581 µM)	relative viability ([4]; first compound 0.5 µM)	relative viability ([4]; first compound 1.581 µM)	relative viability ([4]; first compound 5 µM)
HOP-62	0.0518	0.0592	0.0621	0.0833	0.0796	0.0827	0.234	0.0724	0.107	0.0858	0.0752	0.0748	0.0769	0.0912	0.0784	0.0662	0.0706	0.0806	0.128	0.0892
IA-LM	0.0691	0.0691	0.0591	0.059	0.051															
LC-2-ad	0.197	0.172	0.191	0.185	0.17	0.224	0.196	0.192	0.172	0.202	0.191	0.187	0.143	0.165	0.166	0.202	0.218	0.217	0.217	0.192
LCLC-97TM1	0.071	0.0753	0.0572	0.0546	0.0434	0.0948	0.223	0.0874	0.0867	0.0722	0.163	0.161	0.143	0.0911	0.13	0.0782	0.0748	0.0673	0.068	0.0595
LCLC-103H	0.344	0.321	0.286	0.254	0.296	0.335	0.464	0.309	0.289	0.287	0.123	0.136	0.156	0.103	0.164	0.321	0.301	0.328	0.253	0.325
LK-2	0.117	0.143	0.145	0.169	0.127	0.0858	0.0843	0.0965	0.0618	0.112	0.141	0.187	0.17	0.121	0.151	0.0705	0.123	0.0631	0.1	0.0756
LOU-NH91	0.577	0.588	0.566	0.388	0.374	0.486	0.526	0.496	0.388	0.389	0.35	0.37	0.27	0.367	0.382	0.392	0.439	0.421	0.403	0.366
LU99A	0.147	0.152	0.137	0.131	0.161	0.14	0.312	0.129	0.127	0.121	0.131	0.16	0.114	0.106	0.155	0.192	0.158	0.164	0.146	0.162
LXF-289	0.22	0.185	0.188	0.151	0.104	0.252	0.6	0.189	0.143	0.13	0.0597	0.064	0.0627	0.0541	0.0561	0.254	0.203	0.199	0.17	0.104
NCI-H23	0.15	0.11	0.124	0.0929	0.102	0.143	0.174	0.168	0.133	0.164	0.128	0.142	0.177	0.121	0.142	0.16	0.175	0.203	0.137	0.19
NCI-H322M	0.337	0.345	0.358	0.465	0.438	0.345	0.382	0.488	0.379	0.439	0.183	0.309	0.263	0.247	0.282	0.327	0.391	0.556	0.327	0.404
NCI-H358	0.0785	0.0651	0.0611	0.0639	0.0677	0.0943	0.103	0.106	0.07	0.0834	0.0836	0.0975	0.102	0.0651	0.092	0.114	0.107	0.109	0.0963	0.12
NCI-H596	0.27	0.255	0.253	0.241	0.23						0.234	0.29	0.245	0.224	0.225	0.373	0.302	0.339	0.243	0.292
NCI-H727	0.298	0.327	0.299	0.311	0.304	0.346	0.393	0.363	0.314	0.439	0.204	0.24	0.236	0.242	0.274					
NCI-H1563											0.394	0.462	0.408	0.229	0.312	0.525	0.571	0.505	0.41	0.47
NCI-H1648	0.217	0.48	0.339	0.342	0.245	0.258	0.301	0.322	0.352	0.337						0.258	0.323	0.329	0.274	0.311
NCI-H1792						0.426	0.398	0.363	0.272	0.259	0.483	0.294	0.256	0.271	0.196	0.126	0.0786	0.0748	0.0765	0.0786
